Laboratory results taken from patent US20230391781A1, “MALT1 MODULATORS AND USES THEREOF” (Rheos Medicines, Inc., priority 2020, published 2023).
Structures can show the parent of a compound that is named as a salt. Where two headings read alike, the source gives them in different places.

Columns and labels:
full length MALT1 = full length MALT1 (Homo sapiens (Human), UniProt Q9UDY8); test: MALT1 Biochemical Assay; settings: 15 nM enzyme, 30 μM peptide substrate Ac-Leu-Arg-Ser-Arg-Rh110-dPro, 30 min pre-incubation, 60 min reaction; mean value if tested more than once
Experimental: Inhibitor potency was evaluated by measuring enzymatic activity of full length MALT1 at varying concentrations of compound. The enzymatic assay consists of a single substrate reaction that monitors the release of a fluorescent dye upon cleavage of the peptide substrate. […] The assay buffer consists of 50 mM Hepes, pH 7.5, 0.8 M sodium citrate, 1 mM DTT, 0.004% tween-20, and 0.005% bovine serum albumin (BSA). […] The reaction was quenched after 60 minutes with the addition of iodoacetate at a final concentration of 10 mM. Total fluorescence was measured using an Envision (PerkinElmer) with fluorescence excitation at 485 nm and emission at […].
For potency determination, 1 μL of serially diluted compound (in 100% DMSO) was pre-incubated with 40 μL of enzyme for 30 minutes. The reaction was initiated with the addition of 10 μL of peptide substrate. The relative fluorescence units were transformed to percent inhibition by using 0% and 100% inhibition controls as reference. […] IC50 values were calculated by fitting the concentration-response curves to a four-parameter logistic equation in GraphPad Prism.

[1] = system: IL-2 in Jurkat (ATCC, clone E6.1) cells stimulated with anti-CD3/28/2; test: Jurkat IL-2 Assay; format: cell-based; settings: Homo sapiens
Experimental: Inhibition was determined in a cell-based assay using Jurkat (ATCC, clone E6.1), an immortalized T-cell line, exposed to a dose response of compound and assessed for viability, and Il-2 inhibition by ELISA. Cells were cultured in RPMI/10% FBS (Invitrogen 11875093, Atlanta Biologicals S12450H), maintained below 3E6/mL and only used in assays while below passage 25. Compounds were stamped by ECHO onto 384w plates (PerkinElmer Culturplate, 6007680). The cells were plated in fresh media on top of compound and incubated for 30 minutes before stimulation with soluble anti-CD3/28/2 (Stemcell, 10970) for 24 hours. Supernatant was collected and assessed for Il-2 (MSD, 384w, L21SA-1). To assess viability of cells treated with compound, cells were lysed with CTG reagent (Promega, G7570), and measured by luminometer. […] IC50s calculated using 4-parameter fit in GraphPad Prism.
In this table, “A” indicates IC50 of less than 0.1 μM; “B” indicates IC50 from 0.1 μM up to 1 μM; and “C” indicates IC50 of greater than 1 μM. “N/A” indicates not tested. For a compound that was tested in more than one experiment, the result shown represents the mean value.

[2] = IL-2 inhibition, Jurkat cells, 30 min compound then anti-CD3/28/2 stimulation for 24 hours, mean value if tested more than once, read-out: IC50

full length MALT1, sequence (Q9UDY8 whole entry): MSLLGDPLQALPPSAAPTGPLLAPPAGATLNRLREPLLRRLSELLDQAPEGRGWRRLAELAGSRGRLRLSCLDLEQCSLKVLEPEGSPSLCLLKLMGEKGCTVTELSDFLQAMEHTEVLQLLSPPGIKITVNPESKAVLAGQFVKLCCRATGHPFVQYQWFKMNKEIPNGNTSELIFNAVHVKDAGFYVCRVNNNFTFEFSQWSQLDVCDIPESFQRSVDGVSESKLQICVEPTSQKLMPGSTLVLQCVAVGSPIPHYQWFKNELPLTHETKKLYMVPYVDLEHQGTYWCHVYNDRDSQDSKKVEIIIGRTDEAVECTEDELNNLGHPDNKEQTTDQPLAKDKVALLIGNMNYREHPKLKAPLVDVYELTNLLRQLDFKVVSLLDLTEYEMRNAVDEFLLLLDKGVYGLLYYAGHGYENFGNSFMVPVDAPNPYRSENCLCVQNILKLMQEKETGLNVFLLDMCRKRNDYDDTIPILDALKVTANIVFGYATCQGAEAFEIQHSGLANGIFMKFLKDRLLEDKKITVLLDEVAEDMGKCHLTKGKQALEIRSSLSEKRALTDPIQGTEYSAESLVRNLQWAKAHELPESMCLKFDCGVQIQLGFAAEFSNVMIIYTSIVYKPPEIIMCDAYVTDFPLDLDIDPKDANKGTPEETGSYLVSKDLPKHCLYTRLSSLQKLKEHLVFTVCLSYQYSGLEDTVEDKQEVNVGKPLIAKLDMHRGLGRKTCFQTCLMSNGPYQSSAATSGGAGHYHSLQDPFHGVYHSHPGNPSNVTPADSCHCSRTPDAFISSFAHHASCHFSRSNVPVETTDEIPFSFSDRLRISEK

| SMILES | IC50 (full length MALT1) | IC50 [1, 2] | IC50 ([1]; Jurkat) |
| --- | --- | --- | --- |
| CO[C@@H](C)c1c(Nc2ccc([C@@H](N(C)C(=O)C3CCS(=O)(=O)CC3)C(F)(F)F)cc2)cnc2nc(Cl)nn12 [Compound 1.26, N-[(1R)-1-[4-({2-chloro-7-[(1S)-1-methoxyethyl]-[1,2,4]triazolo[1,5-a]pyrimidin-6-yl}amino)phenyl]-2,2,2-trifluoroethyl]-N-methyl-1,1-dioxo-1λ^6-thiane-4-carboxamide] | > 1000 nM | > 1000 nM |  |
| CO[C@H](C)c1c(Nc2ccc([C@@H](N(C)C(=O)C3CCS(=O)(=O)CC3)C(F)(F)F)cc2)cnc2nc(Cl)nn12 [Compound 1.27, N-[(1R)-1-[4-({2-chloro-7-[(1R)-1-methoxyethyl]-[1,2,4]triazolo[1,5-a]pyrimidin-6-yl}amino)phenyl]-2,2,2-trifluoroethyl]-N-methyl-1,1-dioxo-1λ^6-thiane-4-carboxamide] | > 1000 nM | > 1000 nM |  |
| CO[C@@H](C)c1c(Nc2ccc([C@H](N(C)C(=O)C3CCC3)C(F)(F)F)c(C)c2)cnc2nc(Cl)nn12 [Compound 1.28, N-[(1S)-1-[4-({2-chloro-7-[(1S)-1-methoxyethyl]-[1,2,4]triazolo[1,5-a]pyrimidin-6-yl}amino)-2-methylphenyl]-2,2,2-trifluoroethyl]-N-methylcyclobutanecarboxamide] | > 1000 nM | > 1000 nM |  |
| CO[C@@H](C)c1c(Nc2ccc([C@H](N(C)C(=O)C3CC3)C(F)(F)F)c(C)c2)cnc2nc(Cl)nn12 [Compound 1.29, N-[(1S)-1-[4-({2-chloro-7-[(1S)-1-methoxyethyl]-[1,2,4]triazolo[1,5-a]pyrimidin-6-yl}amino)-2-methylphenyl]-2,2,2-trifluoroethyl]-N-methylcyclopropanecarboxamide] | > 1000 nM | > 1000 nM |  |
| CO[C@@H](C)c1c(Nc2ccc([C@H](N(C)C(=O)C3CCS(=O)(=O)CC3)C(F)(F)F)c(C)c2)cnc2nc(Cl)nn12 [Compound 1.30, N-[(1S)-1-[4-({2-chloro-7-[(1S)-1-methoxyethyl]-[1,2,4]triazolo[1,5-a]pyrimidin-6-yl}amino)-2-methylphenyl]-2,2,2-trifluoroethyl]-N-methyl-1,1-dioxo-1λ^6-thiane-4-carboxamide] | 100 to 1000 nM | > 1000 nM |  |
| CO[C@@H](C)c1c(Nc2ccc([C@H](N(C)C(=O)C3CCC3)C(F)(F)F)cc2C)cnc2nc(Cl)nn12 [Compound 1.31, N-[(1S)-1-[4-({2-chloro-7-[(1S)-1-methoxyethyl]-[1,2,4]triazolo[1,5-a]pyrimidin-6-yl}amino)-3-methylphenyl]-2,2,2-trifluoroethyl]-N-methylcyclobutanecarboxamide] | > 1000 nM | > 1000 nM |  |
| CO[C@@H](C)c1c(Nc2ccc([C@H](N(C)C(=O)C3CC3)C(F)(F)F)cc2C)cnc2nc(Cl)nn12 [Compound 1.32, N-[(1S)-1-[4-({2-chloro-7-[(1S)-1-methoxyethyl]-[1,2,4]triazolo[1,5-a]pyrimidin-6-yl}amino)-3-methylphenyl]-2,2,2-trifluoroethyl]-N-methylcyclopropanecarboxamide] | 100 to 1000 nM | > 1000 nM |  |
| CO[C@@H](C)c1c(Nc2ccc([C@H](N(C)C(=O)C3CCS(=O)(=O)CC3)C(F)(F)F)cc2C)cnc2nc(Cl)nn12 [Compound 1.33, N-[(1S)-1-[4-({2-chloro-7-[(1S)-1-methoxyethyl]-[1,2,4]triazolo[1,5-a]pyrimidin-6-yl}amino)-3-methylphenyl]-2,2,2-trifluoroethyl]-N-methyl-1,1-dioxo-1λ^6-thiane-4-carboxamide] | 100 to 1000 nM | > 1000 nM |  |
| CO[C@@H](C)c1c(Nc2ccc([C@H](N(C)C(=O)C3CCNCC3)C(F)(F)F)cc2)cnc2nc(Cl)nn12 [Compound 2.1, N—((S)-1-(4-((2-chloro-7-((S)-1-methoxyethyl)-[1,2,4]triazolo[1,5-a]pyrimidin-6-yl)amino)phenyl)-2,2,2-trifluoroethyl)-N-methylpiperidine-4-carboxamide trifluoroacetate] | 100 to 1000 nM |  | 100 to 1000 nM |

Second part, led by results:

| IC50 (full length MALT1) | IC50 [1, 2] | SMILES | IC50 ([1]; Jurkat) |
| --- | --- | --- | --- |
| 100 to 1000 nM | > 1000 nM | CO[C@@H](C)c1c(Nc2ccc([C@H](N(C)C(=O)C3CCCNC3)C(F)(F)F)cc2)cnc2nc(Cl)nn12 (stereo partly drawn) [Compound 2.2, N-[(1S)-1-[4-({2-chloro-7-[(1S)-1-methoxyethyl]-[1,2,4]triazolo[1,5-a]pyrimidin-6-yl}amino)phenyl]-2,2,2-trifluoroethyl]-N-methylpiperidine-3-carboxamide] |  |
| 100 to 1000 nM | 100 to 1000 nM | CO[C@@H](C)c1c(Nc2ccc([C@H](N(C)C(=O)C3CCNC3)C(F)(F)F)cc2)cnc2nc(Cl)nn12 (stereo partly drawn) [Compound 2.3, N—((S)-1-(4-((2-chloro-7-((S)-1-methoxyethyl)-[1,2,4]triazolo[1,5-a]pyrimidin-6-yl)amino)phenyl)-2,2,2-trifluoroethyl)-N-methylpyrrolidine-3-carboxamide hydrochloride] |  |
| < 100 nM | 100 to 1000 nM | CO[C@@H](C)c1c(Nc2ccc([C@H](N(C)C(=O)C3CCC(CN)CC3)C(F)(F)F)cc2)cnc2nc(Cl)nn12 (stereo partly drawn) [Compound 2.4, 4-(aminomethyl)-N-[(1S)-1-[4-({2-chloro-7-[(1S)-1-methoxyethyl]-[1,2,4]triazolo[1,5-a]pyrimidin-6-yl}amino)phenyl]-2,2,2-trifluoroethyl]-N-methylcyclohexane-1-carboxamide; Formic Acid] |  |
| < 100 nM | 100 to 1000 nM | CO[C@@H](C)c1c(Nc2ccc([C@H](N(C)C(=O)C3CCN(S(=O)(=O)C(C)C)CC3)C(F)(F)F)cc2)cnc2nc(Cl)nn12 [Compound 3.2, N-[(1S)-1-[4-({2-chloro-7-[(1S)-1-methoxyethyl]-[1,2,4]triazolo[1,5-a]pyrimidin-6-yl}amino)phenyl]-2,2,2-trifluoroethyl]-N-methyl-1-(propane-2-sulfonyl)piperidine-4-carboxamide] |  |
| < 100 nM | 100 to 1000 nM | COC(=O)N1CCC(C(=O)N(C)[C@@H](c2ccc(Nc3cnc4nc(Cl)nn4c3[C@H](C)OC)cc2)C(F)(F)F)CC1 [Compound 3.3, methyl 4-{[(1S)-1-[4-({2-chloro-7-[(1S)-1-methoxyethyl]-[1,2,4]triazolo[1,5-a]pyrimidin-6-yl}amino)phenyl]-2,2,2-trifluoroethyl](methyl)carbamoyl}piperidine-1-carboxylate] |  |
| < 100 nM | 100 to 1000 nM | CO[C@@H](C)c1c(Nc2ccc([C@H](N(C)C(=O)C3CCCN(C(C)=O)C3)C(F)(F)F)cc2)cnc2nc(Cl)nn12 (stereo partly drawn) [Compound 3.5, 1-acetyl-N-[(1S)-1-[4-({2-chloro-7-[(1S)-1-methoxyethyl]-[1,2,4]triazolo[1,5-a]pyrimidin-6-yl}amino)phenyl]-2,2,2-trifluoroethyl]-N-methylpiperidine-3-carboxamide] |  |
| 100 to 1000 nM | > 1000 nM | CNC(=O)N1CCCC(C(=O)N(C)[C@@H](c2ccc(Nc3cnc4nc(Cl)nn4c3[C@H](C)OC)cc2)C(F)(F)F)C1 (stereo partly drawn) [Compound 3.6, N3-[(1S)-1-[4-({2-chloro-7-[(1S)-1-methoxyethyl]-[1,2,4]triazolo[1,5-a]pyrimidin-6-yl}amino)phenyl]-2,2,2-trifluoroethyl]-N1,N3-dimethylpiperidine 1,3-dicarboxamide] |  |
